Assay results: patent US20260001853A1, “ASCORBIC ACID DERIVATIVE OR SALT THEREOF, AND COSMETIC THEREOF” (SEIWA KASEI COMPANY, LIMITED, priority 2022, published 2026)

Columns and labels:
[1] = system: Normal human dermal fibroblasts (NHDF); assay: Hyaluronic acid production promoting effect (ELISA of supernatant); format: cell-based; settings: amount of hyaluronic acid produced, % with control group taken as 100%; sample at 10 mmol/L or less, 48 hours, N=3
Method: Normal human dermal fibroblasts (NHDF) were prepared in D-MEM containing 5% (v/v) fetal bovine serum to a cell density of 2.5× 10^4 cells/well, and then pre-incubated on a 96-well plate for 24 hours. After removing the medium, samples prepared in serum-free D-MEM were added to each well and cultured for 48 hours. After the culture was completed, the amount of hyaluronic acid in the supernatant was quantified by ELISA method. The measurement was performed with N=3.
(§1) The amount of hyaluronic acid produced when the samples were measured at a concentration of 10 mmol/L or less was compared with that of the control group, and the results (% values when the control group is taken as 100%) are shown in Tables 18 to 20 based on the following criteria. • <100%: ± • 100-120%: + • 120-150%: ++ • 150%: +++

B16 melanoma 4A5 cells = assay: Melanin production inhibitory effect (theophylline-induced melanin production); format: cell-based, mouse; settings: melanin production inhibition rate, sample at a concentration of 10 mM or less, 3 days culture, theophylline 1 mmol/L, N=4
Method: As a test of the whitening effect, the effect on theophylline-induced melanin production in B16 melanoma 4A5 cells was evaluated for the ascorbic acid derivatives of the present invention according to the following procedure. A similar evaluation was also performed for a known ascorbic acid derivative for comparison. The results are shown in Tables 9 to 11. • (1) B16 mouse melanoma 4A5 cells were seeded in a 48-well plate at a cell density of 8.0×10^3 cells/well. • (2) After culturing for 24 hours in Dulbecco's modified Eagle's medium (manufactured by SIGMA, hereinafter abbreviated as “D-MEM”) containing 10% fetal bovine serum, the medium was replaced with D-MEM containing 10% fetal bovine serum containing theophylline (final concentration 1 mmol/L) and a specified concentration of a sample. • (3) After culturing for 3 days in the presence of the sample, the medium was removed using an aspirator, distilled water was added, and the cells were disrupted by ultrasonication. • (4) The amount of protein was then quantified using a BCA protein assay kit (manufactured by PIERCE), and the amount of melanin produced was measured by an alkali solubilization method. Sodium hydroxide was added to the cell lysate to a final concentration of 1 mol/L, and the solution was dissolved by heating (60° C., 30 minutes), thereafter the absorbance at 405 nm was measured using a microplate reader. The amount of melanin was calculated from a calibration curve prepared using synthetic melanin (SIGMA) as a standard. The amount of melanin per unit protein was calculated by dividing the amount of melanin by the amount of protein. • (5) The melanin production inhibition rate was calculated using the following formula.
[In the formula, A represents the amount of melanin per unit protein (g/g) when the sample was added, B represents the amount of melanin per unit protein (g/g) in the normal group, and C represents the amount of melanin per unit protein (g/g) in the control group.]
The melanin production inhibition rate when the sample was measured at a concentration of 10 mM or less is expressed as follows. The measurement was performed with N=4. • <20%: ± • 20-40%: + • 40-60%: ++ • 60-100%: +++

[2] = system: Normal human dermal fibroblasts; assay: Collagen production promoting effect (ELISA of supernatant); format: cell-based; settings: amount of collagen produced, % with control group taken as 100%; sample at 10 mmol/L or less, 48 hours, N=3
Method: Normal human dermal fibroblasts were prepared in D-MEM containing 5% (v/v) fetal bovine serum to a cell density of […] cells/well, and pre incubated on a 96-well plate for 24 hours. After removing the medium, samples prepared to a predetermined concentration in D-MEM containing 5% (v/v) fetal bovine serum were added to each well and cultured for 48 hours. After completion of the culture, the amount of free collagen in the supernatant was quantified by ELISA method. The measurement was performed with N=3.
as §1, with “of collagen” for “of hyaluronic acid”, “Tables 15” for “Tables 18”, “to 17” for “to 20”, “• 120%:” for “• 120-150%:”, “++” for “++ • 150%: +++”

[3] = Stability test (residual rate by HPLC, odor, coloring); format: physicochemical; settings: 1% aqueous solution; for Coloring / Odor: total score of 10 panelists
Method: With a dilute potassium hydroxide aqueous solution, 1% aqueous solution of each test sample was adjusted to pH 6, placed in a 50 mL screw tube, sealed, […], and then subjected to HPLC measurement (using a liquid chromatograph manufactured by Shimadzu Corporation) to determine the residual rate from the peak area. The residual rate, odor, and coloring degree were evaluated according to the following methods and criteria.
Residual rate: • ⊚: 90% or more • ◯: 80% or more, less than 90% • Δ: 60% or more, less than 80% • x: 20% or more, less than 60% • xx: Less than 20%
Evaluation was made by 10 panelists according to the following criteria. • 3: Almost odorless • 2: There is a slight strange odor. • 1: A strong odor is detected.
Based on the evaluation results, the following classification was made: • ⊚: Total score of 10 panelists is 25 or more • ◯: Total score of 10 panelists is 20-24 • Δ: Total score of 10 panelists is 16-19 • x: The total score of 10 panelists is 15 or less
Evaluation was made by 10 panelists according to the following criteria. • 3: Almost no change compared to immediately after preparation. • 2: Color changes compared to immediately after preparation. • 1: Strongly colored compared to immediately after preparation.
Based on the evaluation results, the following classification was made: • ◯: Total score of 10 panelists is 25 or more • Δ: Total score of 10 panelists is 16-24 • x: The total score of 10 panelists is 15 or less

[4] = pH 6, stored at 50° C., four weeks later
[5] = pH 6, stored at 50° C., two weeks later

Compound	Hyaluronic acid production promoting effect [1]	Melanin production inhibition effect (B16 melanoma 4A5 cells)	Collagen production promoting effect [2]	Residual rate ([3]; pH 6, 50° C., initial)	Coloring ([3]; pH 6, 50° C., initial)	Odor ([3]; pH 6, 50° C., initial)	Residual rate [3, 4]	Coloring [3, 4]	Odor [3, 4]	Residual rate [3, 5]	Coloring [3, 5]	Odor [3, 5]
CCCCCCCCCCCCOC1=C(OCC(C)(C)O)C(=O)O[C@@H]1[C@@H](O)CO [Synthesis Example 8, 2-O-(2-hydroxyisobutyl)-3-O-dodecyl ascorbic acid]	+++ (150%: +++)	++ (40-60%: ++)	++ (120%: ++)	⊚ (⊚: 90% or more)	◯ (◯: Total score of 10 panelists is 25 or more)	◯ (◯: Total score of 10 panelists is 20-24)	⊚ (⊚: 90% or more)	◯ (◯: Total score of 10 panelists is 25 or more)	◯ (◯: Total score of 10 panelists is 20-24)	⊚ (⊚: 90% or more)	◯ (◯: Total score of 10 panelists is 25 or more)	◯ (◯: Total score of 10 panelists is 20-24)
CCCCOCC(O)COC1=C(OCC(C)(C)O)C(=O)OC1C(O)CO (stereo not drawn) [Synthesis Example 14, 2-O-(2-hydroxyisobutyl)-3-O-(2-hydroxy-3-O-butyl) ascorbic acid]	++ (120-150%: ++)	++ (40-60%: ++)	++ (120%: ++)	⊚ (⊚: 90% or more)	◯ (◯: Total score of 10 panelists is 25 or more)	⊚ (⊚: Total score of 10 panelists is 25 or more)	⊚ (⊚: 90% or more)	◯ (◯: Total score of 10 panelists is 25 or more)	◯ (◯: Total score of 10 panelists is 20-24)	⊚ (⊚: 90% or more)	◯ (◯: Total score of 10 panelists is 25 or more)	⊚ (⊚: Total score of 10 panelists is 25 or more)
CC(C)(O)COC1=C(OCC(C)(C)O)[C@@H]([C@@H](O)CO)OC1=O [Synthesis Example 17, 2,3-di-O-(2-hydroxyisobutyl) ascorbic acid]	++ (120-150%: ++)	+ (20-40%: +)	++ (120%: ++)	⊚ (⊚: 90% or more)	◯ (◯: Total score of 10 panelists is 25 or more)	◯ (◯: Total score of 10 panelists is 20-24)	⊚ (⊚: 90% or more)	◯ (◯: Total score of 10 panelists is 25 or more)	◯ (◯: Total score of 10 panelists is 20-24)	⊚ (⊚: 90% or more)	◯ (◯: Total score of 10 panelists is 25 or more)	◯ (◯: Total score of 10 panelists is 20-24)
CCCCCCCCCCCCCCOC1=C(OCC(C)(C)O)[C@@H]([C@@H](O)CO)OC1=O [Synthesis Example 24, 2-O-tetradecyl-3-O-(2-hydroxyisobutyl) ascorbic acid]	++ (120-150%: ++)	+++ (60-100%: +++)	++ (120%: ++)	⊚ (⊚: 90% or more)	◯ (◯: Total score of 10 panelists is 25 or more)	◯ (◯: Total score of 10 panelists is 20-24)	⊚ (⊚: 90% or more)	◯ (◯: Total score of 10 panelists is 25 or more)	◯ (◯: Total score of 10 panelists is 20-24)	⊚ (⊚: 90% or more)	◯ (◯: Total score of 10 panelists is 25 or more)	◯ (◯: Total score of 10 panelists is 20-24)
CCCCCCCCCCCCCCCCOC1=C(OCC(C)(C)O)[C@@H]([C@@H](O)CO)OC1=O [Synthesis Example 25, 2-O-hexadecyl-3-O-(2-hydroxyisobutyl) ascorbic acid]	++ (120-150%: ++)	+ (20-40%: +)	++ (120%: ++)	–	–	–	–	–	–	–	–	–
C=CCOC1=C(OCC(C)(C)O)[C@@H]([C@@H](O)CO)OC1=O [Synthesis Example 26, 2-O-allyl-3-O-(2-hydroxyisobutyl) ascorbic acid]	++ (120-150%: ++)	+ (20-40%: +)	++ (120%: ++)	–	–	–	–	–	–	–	–	–
CC(C)(O)COC1=C(OCc2ccccc2)C(=O)O[C@@H]1[C@@H](O)CO [Synthesis Example 27, 2-O-benzyl-3-O-(2-hydroxyisobutyl) ascorbic acid]	+++ (150%: +++)	++ (40-60%: ++)	++ (120%: ++)	–	–	–	–	–	–	–	–	–
CCCOC1=C(OCC(C)(C)O)C(=O)O[C@@H]1[C@@H](O)CO [Synthesis Example 32, 2-O-(2-hydroxyisobutyl)-3-O-propylascorbic acid]	++ (120-150%: ++)	++ (40-60%: ++)	++ (120%: ++)	–	–	–	–	–	–	–	–	–
CCCOC1=C(OCC(C)(C)O)[C@@H]([C@@H](O)CO)OC1=O [Synthesis Example 33, 2-O-propyl-3-O-(2-hydroxyisobutyl) ascorbic acid]	++ (120-150%: ++)	++ (40-60%: ++)	++ (120%: ++)	–	–	–	–	–	–	–	–	–
CC(O)COC1=C(OCC(C)(C)O)C(=O)O[C@@H]1[C@@H](O)CO (stereo partly drawn) [Synthesis Example 34, 2-O-(2-hydroxyisobutyl)-3-O-(2-hydroxypropyl) ascorbic acid]	++ (120-150%: ++)	+++ (60-100%: +++)	+ (100-120%: +)	–	–	–	–	–	–	–	–	–
CCC(O)COC1=C(OCC(C)(C)O)C(=O)O[C@@H]1[C@@H](O)CO (stereo partly drawn) [Synthesis Example 35, 2-O-(2-hydroxyisobutyl)-3-O-(2-hydroxybutyl) ascorbic acid]	++ (120-150%: ++)	++ (40-60%: ++)	++ (120%: ++)	–	–	–	–	–	–	–	–	–
